Key:
Conditions in all cases: 48 h
[1] = tested on: NOMO1; experiment: AUC of viability dose-response curve (% viability x log10 dose units); higher = less sensitive
Method in brief: (§1)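 Library compounds in DMSO were applied for 48 h at 37°C at 11 threefold doses (47 μM to 0.79 nM) to medium-adapted leukemia cells in 1536-well plates holding 500 or 1000 cells/well. Luminescence from CellTiter-Glo One was normalised plate by plate against DMSO and cell-free wells. Area under the curve came from trapezoidal integration of a log-logistic fit, after scaling curves that rose above full viability and discarding those that failed quality control. The fit had four parameters and used log10 doses.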

[2] = tested on: P12-Ichikawa; experiment: as above
Method in brief: as §1

[3] = tested on: SEM cells; experiment: as above
Method in brief: as §1

[4] = tested on: NOMO1; experiment: cell viability relative to DMSO control; higher = less cytotoxic
Method in brief: (§2)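 NOMO1, SEM and P12-Ichikawa leukemia cells spent at least four passages adapting to each medium before use. They were seeded at 500 cells/well (NOMO1, SEM) or 1000 cells/well (P12-Ichikawa) in 5 μl in 1536-well plates and pin-dosed with library compounds in DMSO at 11 threefold steps from 47 μM down to 0.79 nM. After 48 h at 37°C, CellTiter-Glo One luminescence was read. Viability is reported as a percentage of the DMSO wells on each plate, with cell-free wells as background.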

[5] = tested on: P12-Ichikawa; experiment: as above
Method in brief: as §2

[6] = tested on: SEM cells; experiment: as above
Method in brief: as §2

CN(C(Cc1ccc(O[S+](=O)([O-])c2cccc3cnccc23)cc1)C(=O)N1CCN(c2ccccc2)CC1)[S+](=O)([O-])c1cccc2cnccc12 (configuration not stated)
AUC of viability dose-response curve
Conditions	[1]	[2]	[3]
HPLM + 10% dialyzed FBS	442	452	436
RPMI 5 mM glucose + 10% FBS	425	434	424
RPMI 5 mM glucose + 10% dialyzed FBS	436	450	428

cell viability [%]
Conditions	[4]	[5]	[6]
HPLM + 10% dialyzed FBS, 0.000781 µM	127	102	102
HPLM + 10% dialyzed FBS, 0.00234 µM	98.3	103	110
HPLM + 10% dialyzed FBS, 0.00702 µM	109	106	112
HPLM + 10% dialyzed FBS, 0.0211 µM	113	110	105
HPLM + 10% dialyzed FBS, 0.0632 µM	103	114	110
HPLM + 10% dialyzed FBS, 0.19 µM	120	105	108
HPLM + 10% dialyzed FBS, 0.569 µM	132	114	114
HPLM + 10% dialyzed FBS, 1.71 µM	95.2	102	95.3
HPLM + 10% dialyzed FBS, 5.12 µM	105	93.1	94.6
HPLM + 10% dialyzed FBS, 15.4 µM	77	89.2	74.2
HPLM + 10% dialyzed FBS, 46.1 µM	48.4	70.5	39.1
RPMI 5 mM glucose + 10% FBS, 0.000781 µM	93.8	107	120
RPMI 5 mM glucose + 10% FBS, 0.00234 µM	81.5	110	110
RPMI 5 mM glucose + 10% FBS, 0.00702 µM	95.8	109	108
RPMI 5 mM glucose + 10% FBS, 0.0211 µM	101	106	109
RPMI 5 mM glucose + 10% FBS, 0.0632 µM	93.8	108	108
RPMI 5 mM glucose + 10% FBS, 0.19 µM	86.3	103	99.7
RPMI 5 mM glucose + 10% FBS, 0.569 µM	95.2	103	108
RPMI 5 mM glucose + 10% FBS, 1.71 µM	82.6	97.7	96.9
RPMI 5 mM glucose + 10% FBS, 5.12 µM	91.4	90.6	95
RPMI 5 mM glucose + 10% FBS, 15.4 µM	82.5	71.8	46.2
RPMI 5 mM glucose + 10% FBS, 46.1 µM	66.3	57.3	22.9
RPMI 5 mM glucose + 10% dialyzed FBS, 0.000781 µM	82.5	104	110
RPMI 5 mM glucose + 10% dialyzed FBS, 0.00234 µM	97.7	108	120
RPMI 5 mM glucose + 10% dialyzed FBS, 0.00702 µM	99.8	105	100
RPMI 5 mM glucose + 10% dialyzed FBS, 0.0211 µM	94.5	121	119
RPMI 5 mM glucose + 10% dialyzed FBS, 0.0632 µM	89.2	109	114
RPMI 5 mM glucose + 10% dialyzed FBS, 0.19 µM	101	105	120
RPMI 5 mM glucose + 10% dialyzed FBS, 0.569 µM	93.9	113	114
RPMI 5 mM glucose + 10% dialyzed FBS, 1.71 µM	98.4	97.8	110
RPMI 5 mM glucose + 10% dialyzed FBS, 5.12 µM	93.8	102	90.3
RPMI 5 mM glucose + 10% dialyzed FBS, 15.4 µM	81.6	84.8	67.1
RPMI 5 mM glucose + 10% dialyzed FBS, 46.1 µM	56.1	58.7	34.5

N#C/C(=C1/Nc2ccccc2S1)c1ccnc(OCc2ccc(CN3CCOCC3)cc2)n1
AUC of viability dose-response curve
Conditions	[1]	[2]	[3]
HPLM + 10% dialyzed FBS	399	429	468
RPMI 5 mM glucose + 10% FBS	412	422	472
RPMI 5 mM glucose + 10% dialyzed FBS	407	434	461

cell viability [%]
Conditions	[4]	[5]	[6]
HPLM + 10% dialyzed FBS, 0.000781 µM	104	106	103
HPLM + 10% dialyzed FBS, 0.00234 µM	120	105	97.2
HPLM + 10% dialyzed FBS, 0.00702 µM	97.1	110	112
HPLM + 10% dialyzed FBS, 0.0211 µM	127	112	101
HPLM + 10% dialyzed FBS, 0.0632 µM	122	110	109
HPLM + 10% dialyzed FBS, 0.19 µM	122	119	108
HPLM + 10% dialyzed FBS, 0.569 µM	107	109	106
HPLM + 10% dialyzed FBS, 1.71 µM	84.9	110	100
HPLM + 10% dialyzed FBS, 5.12 µM	86	105	121
HPLM + 10% dialyzed FBS, 15.4 µM	25.2	40.1	108
HPLM + 10% dialyzed FBS, 46.1 µM	27.5	37.1	99.3
RPMI 5 mM glucose + 10% FBS, 0.000781 µM	104	103	114
RPMI 5 mM glucose + 10% FBS, 0.00234 µM	109	105	98.1
RPMI 5 mM glucose + 10% FBS, 0.00702 µM	105	116	107
RPMI 5 mM glucose + 10% FBS, 0.0211 µM	117	109	115
RPMI 5 mM glucose + 10% FBS, 0.0632 µM	113	111	99.4
RPMI 5 mM glucose + 10% FBS, 0.19 µM	115	109	115
RPMI 5 mM glucose + 10% FBS, 0.569 µM	109	118	115
RPMI 5 mM glucose + 10% FBS, 1.71 µM	101	109	117
RPMI 5 mM glucose + 10% FBS, 5.12 µM	103	102	102
RPMI 5 mM glucose + 10% FBS, 15.4 µM	13.4	28.8	110
RPMI 5 mM glucose + 10% FBS, 46.1 µM	13.7	33.1	87.7
RPMI 5 mM glucose + 10% dialyzed FBS, 0.000781 µM	112	101	85
RPMI 5 mM glucose + 10% dialyzed FBS, 0.00234 µM	105	106	84.4
RPMI 5 mM glucose + 10% dialyzed FBS, 0.00702 µM	96	106	118
RPMI 5 mM glucose + 10% dialyzed FBS, 0.0211 µM	120	93.1	110
RPMI 5 mM glucose + 10% dialyzed FBS, 0.0632 µM	109	105	111
RPMI 5 mM glucose + 10% dialyzed FBS, 0.19 µM	114	104	100
RPMI 5 mM glucose + 10% dialyzed FBS, 0.569 µM	111	108	113
RPMI 5 mM glucose + 10% dialyzed FBS, 1.71 µM	99	107	113
RPMI 5 mM glucose + 10% dialyzed FBS, 5.12 µM	86	102	104
RPMI 5 mM glucose + 10% dialyzed FBS, 15.4 µM	18	44.5	109
RPMI 5 mM glucose + 10% dialyzed FBS, 46.1 µM	14.6	38.6	87.8

CCOC(=O)[C@H]1O[C@@H]1C(=O)N[C@@H](CC(C)C)C(=O)NCCC(C)C
AUC of viability dose-response curve
Conditions	[1]	[2]	[3]
HPLM + 10% dialyzed FBS	448	462	462
RPMI 5 mM glucose + 10% FBS	445	461	475
RPMI 5 mM glucose + 10% dialyzed FBS	456	469	462

cell viability [%]
Conditions	[4]	[5]	[6]
HPLM + 10% dialyzed FBS, 0.000781 µM	–	123	116
HPLM + 10% dialyzed FBS, 0.00234 µM	–	114	119
HPLM + 10% dialyzed FBS, 0.00702 µM	–	121	109
HPLM + 10% dialyzed FBS, 0.0211 µM	–	127	125
HPLM + 10% dialyzed FBS, 0.0632 µM	–	123	120
HPLM + 10% dialyzed FBS, 0.19 µM	–	123	132
HPLM + 10% dialyzed FBS, 0.569 µM	–	117	69.4
HPLM + 10% dialyzed FBS, 1.71 µM	–	116	114
HPLM + 10% dialyzed FBS, 5.12 µM	–	117	118
HPLM + 10% dialyzed FBS, 15.4 µM	–	108	118
HPLM + 10% dialyzed FBS, 46.1 µM	–	106	109
RPMI 5 mM glucose + 10% FBS, 0.000781 µM	114	128	111
RPMI 5 mM glucose + 10% FBS, 0.00234 µM	107	121	99.4
RPMI 5 mM glucose + 10% FBS, 0.00702 µM	107	119	102
RPMI 5 mM glucose + 10% FBS, 0.0211 µM	117	118	96.2
RPMI 5 mM glucose + 10% FBS, 0.0632 µM	123	124	110
RPMI 5 mM glucose + 10% FBS, 0.19 µM	116	115	88.4
RPMI 5 mM glucose + 10% FBS, 0.569 µM	114	127	91.1
RPMI 5 mM glucose + 10% FBS, 1.71 µM	104	116	124
RPMI 5 mM glucose + 10% FBS, 5.12 µM	102	115	107
RPMI 5 mM glucose + 10% FBS, 15.4 µM	92.2	106	104
RPMI 5 mM glucose + 10% FBS, 46.1 µM	12.6	92.9	94.6
RPMI 5 mM glucose + 10% dialyzed FBS, 0.000781 µM	114	116	–
RPMI 5 mM glucose + 10% dialyzed FBS, 0.00234 µM	112	119	–
RPMI 5 mM glucose + 10% dialyzed FBS, 0.00702 µM	121	115	–
RPMI 5 mM glucose + 10% dialyzed FBS, 0.0211 µM	126	121	–
RPMI 5 mM glucose + 10% dialyzed FBS, 0.0632 µM	106	124	–
RPMI 5 mM glucose + 10% dialyzed FBS, 0.19 µM	121	119	–
RPMI 5 mM glucose + 10% dialyzed FBS, 0.569 µM	113	122	–
RPMI 5 mM glucose + 10% dialyzed FBS, 1.71 µM	109	119	–
RPMI 5 mM glucose + 10% dialyzed FBS, 5.12 µM	102	118	–
RPMI 5 mM glucose + 10% dialyzed FBS, 15.4 µM	112	109	–
RPMI 5 mM glucose + 10% dialyzed FBS, 46.1 µM	15.1	102	–

Source: the supplement of paper PMC11451515
